Where a SMILES comes first, the peptide text is derived from it.
Key:
[1] = test system: Cryptococcus neoformans VKM Y-2755; type: cell-based; conditions: inhibition curves (Figure 4)
Procedure: (§1) The antimicrobial activity of synthetic peptides was tested against a panel of human and plant pathogens. Among them were the yeasts Candida albicans VKM Y-2994 and Cryptococcus neoformans VKM Y-2755, the plant pathogenic bacteria Clavibacter michiganensis subsp. michiganensis VKM Ac-1403, Pseudomonas savastanoi pv. savastanoi VKM B-1546 and Pectobacterium carotovorum subsp. carotovorum VKM B-1247, and four Fusarium species (F. oxysporum VKM F-137, F. culmorum VKM F-2303, F. solani VKM F-142 and F. verticillioides VKM F-670), which cause diseases in plants and humans. The antimicrobial activity was first measured at the peptide concentration of 300 µM (Figure 3).
(§2) The antimicrobial activity of synthetic peptides was tested against the yeasts Candida albicans VKM Y-2994 and Cryptococcus neoformans VKM Y-2755, the bacteria Pseudomonas savastanoi pv. savastanoi VKM B-1546, Pectobacterium carotovorum subsp. carotovorum VKM B-1247 and Clavibacter michiganensis subsp. michiganensis VKM Ac-1403, and four Fusarium species: F. culmorum VKM F-2303, F. oxysporum VKM F-137, F. solani VKM F-142 and F. verticillioides VKM F-670. All cultures were obtained from the All-Russian Collection of Microorganisms (VKM). The details of the production and storage of cultures of microorganisms used in this study are described at the VKM Home page. Antimicrobial assays were accomplished according to the procedure described earlier. In short, yeasts were grown on the YPD-P medium and the bacteria P. carotovorum and Cl. michiganensis were cultured on a modified YPD-P medium. The Fusarium fungi were grown on potato dextrose agar at 25 °C for 7–8 days, and spores were washed off from the surface of the mycelia with sterile, distilled water. The antimicrobial activity of the peptides was measured in immunoassay microtiter plates according to the protocol of Broekaert et al.. With yeasts and bacteria, each well contained 10 µL of the tested peptide solution (final concentrations of 10–300 µM) in water, 80 µL of the medium and 10 µL of the microbial suspension. The plates were incubated at 30 °C for 24 h, and the absorbance of the suspension was measured on an Efos 9305 spectrophotometer (Sapphire, Moscow, Russia) at 594 nm. For Fusarium species, the wells of a microtiter plate were filled with 90 µL of the fungal spore suspension in half-strength potato dextrose broth at a concentration of 2000–3000 spores in 100 µL and 10 µL of aqueous solutions of peptides at final concentrations of 10–300 µM. After 38 h of incubation, the absorbance was recorded at 595 nm on a FilterMax F5 Multi-Mode Microplate Reader (Molecular Devices, San Jose, CA, USA). Antimicrobial activity is expressed in IC50 values, which show the concentration necessary for 50% inhibition of the pathogen growth; this was determined from a graph showing the activity dependence on peptide concentration.
(§3) For each pathogen, experiments on the peptide antimicrobial activity evaluation were carried out in triplicate per treatment. Mean values, standard deviations (SD), and the significance of differences (p ≤ 0.05) of the means between treatments and controls (t-test for independent variables) were determined using STATISTICA v. 6.1 software (StatSoft Inc., Tulsa, OK, USA).

[2] = test system: Pseudomonas savastanoi pv. savastanoi VKM B-1546; type: cell-based; conditions: 300 µM peptide; 30 °C, 24 h, absorbance 594 nm; vs control without peptide; triplicate, mean
Procedure: as §1, §2, §3

[3] = test system: Clavibacter michiganensis subsp. michiganensis VKM Ac-1403; test: Growth inhibition of Cl. michiganensis in microtiter plates; type: cell-based; conditions: inhibition curves (Figure 4)
Procedure: as §1
The antimicrobial activity of synthetic peptides was tested against the yeasts Candida albicans VKM Y-2994 and Cryptococcus neoformans VKM Y-2755, the bacteria Pseudomonas savastanoi pv. savastanoi VKM B-1546, Pectobacterium carotovorum subsp. carotovorum VKM B-1247 and Clavibacter michiganensis subsp. michiganensis VKM Ac-1403, and four Fusarium species: F. culmorum VKM F-2303, F. oxysporum VKM F-137, F. solani VKM F-142 and F. verticillioides VKM F-670. All cultures were obtained from the All-Russian Collection of Microorganisms (VKM). […] The antimicrobial activity of the peptides was measured in immunoassay microtiter plates according to the protocol of Broekaert et al.. […] The plates were incubated at 30 °C for 24 h, and the absorbance of the suspension was measured on an Efos 9305 spectrophotometer (Sapphire, Moscow, Russia) at 594 nm. […] After 38 h of incubation, the absorbance was recorded at 595 nm on a FilterMax F5 Multi-Mode Microplate Reader (Molecular Devices, San Jose, CA, USA). […]
For each pathogen, experiments on the peptide antimicrobial activity evaluation were carried out in triplicate per treatment. Mean values, standard deviations (SD), and the significance of differences (p ≤ 0.05) of the means between treatments and controls (t-test for independent variables) were determined using STATISTICA v. […]

[4] = test system: Cr. neoformans cells; test: Propidium iodide staining, fluorescence microscopy; type: cell-based, Cryptococcus neoformans; conditions: peptide 300 µM, 30 °C, 1 h, 0.03 mM PI 15 min
Procedure: (§4) Their ability to disturb the integrity of pathogen membranes was assayed by staining with propidium iodide of C. albicans and Cr. neoformans cells preliminarily incubated with the peptides. The results were visualized by fluorescent microscopy and quantified by flow cytometry (Figure 5, Figure 6 and Figure 7).
(§5) Staining of yeast cells with propidium iodide in the presence of the γ-core peptides was carried out according to the protocol described earlier. C. albicans or Cr. neoformans cells (24 h culture in YPD-P at a cell concentration of 2 × 10^8/mL) were incubated with the peptide at a concentration of 300 µM at 30 °C for 1 h. After incubation, 1 mL of the cells was stained with 0.03 mM propidium iodide (Sigma, St. Louis, MO, USA). The staining proceeded for 15 min at 30 °C. The fluorescence was recorded on an AXIO Imager A1 fluorescence microscope (ZEISS, Göttingen, Germany) using a Zeiss filter set 56 HE.

[5] = test system: C. albicans cells; test: Propidium iodide staining, fluorescence microscopy; type: cell-based, Candida albicans; conditions: peptide 300 µM, 30 °C, 1 h, 0.03 mM PI 15 min
Procedure: as §4, §5

SMILES | Inhibition of Cr. neoformans at 50 µM ([1]; peptide 50 µM) | Pathogen inhibition, % (Ps. savastanoi) [2] | Inhibition of Cl. michiganensis at 100 µM ([3]; peptide 100 µM) | Inhibition of Cr. neoformans at the highest tested concentration ([1]; highest tested concentration (300 µM)) | Membrane permeabilization of Cr. neoformans cells (PI staining) [4] | Inhibition of Cl. michiganensis at the highest tested concentration ([3]; highest tested concentration of 300 µM) | Membrane permeabilization of C. albicans cells (PI staining) [5]
C[C@H](NC(=O)[C@H](CCCNC(=N)N)NC(=O)[C@H](CCCCN)NC(=O)[C@H](CS)NC(=O)[C@H](Cc1ccccc1)NC(=O)[C@H](CS)NC(=O)[C@H](CCCCN)NC(=O)[C@H](CCCNC(=N)N)NC(=O)[C@H](C)NC(=O)[C@H](Cc1ccccc1)NC(=O)[C@H](CC(N)=O)NC(=O)[C@H](Cc1c[nH]cn1)NC(=O)[C@@H](NC(=O)[C@H](Cc1c[nH]cn1)NC(=O)[C@H](CS)NC(=O)[C@H](CCC(=O)O)NC(=O)CN)[C@@H](C)O)C(=O)N[C@@H](CS)C(=O)O [DEFL1-36_65-82] (H-GECHTHNFARKCFCKRAC-OH; N-terminus and C-terminus assumed) | complete inhibition | failed to suppress | complete inhibition | – | – | – | –
C[C@H](N)C(=O)N[C@@H](CS)C(=O)N1CCC[C@H]1C(=O)NCC(=O)N[C@@H](C)C(=O)N[C@@H](CS)C(=O)N1CCC[C@H]1C(=O)N[C@@H](C)C(=O)N1CCC[C@H]1C(=O)NCC(=O)NCC(=O)N[C@@H](CO)C(=O)N[C@@H](Cc1ccc(O)cc1)C(=O)N[C@H](C(=O)N[C@@H](CC(N)=O)C(=O)N[C@@H](CCCNC(=N)N)C(=O)NCC(=O)N[C@@H](CS)C(=O)N[C@@H](CCC(N)=O)C(=O)N[C@@H](CCCCN)C(=O)N[C@@H](CCCCN)C(=O)N[C@@H](Cc1ccc(O)cc1)C(=O)N[C@@H](CCC(N)=O)C(=O)N[C@@H](CS)C(=O)N[C@@H](CCCNC(=N)N)C(=O)O)[C@@H](C)O [DEFL4-20_86-110] (H-ACPGACPAPGGSYTNRGCQKKYQCR-OH; N-terminus and C-terminus assumed) | – | – | – | 95% | induced membrane permeabilization | 91% | induced membrane permeabilization

— article PMC9368981, “The γ-Core Motif Peptides of AMPs from Grasses Display Inhibitory Activity against Human and Plant Pathogens” (International Journal of Molecular Sciences, 2022)
